Tested on: BODIPY-conjugated pKID domain of CREB protein
Experiment: Fluorescence polarization assay of MBP-KIX-apoferritin with BODIPY-conjugated pKID
Assay type: binding
Conditions: FP assay, protein titrated against BODIPY-pKID, read 30 minutes after mixing
Excerpt: FIGS. 1A-1D. The design of double-shell system. FIG. 1A. The double shell system is shown by cartoon with apoferritin as inner cage, MBP as outer cage, and small cargo proteins in the middle portion. FIG. 1B. Strategy of plasmid construction. The cargo protein KIX C-terminus is fused to the apoferritin N-terminus with the C-terminal 668-672 residues of KIX and N-terminal 1-5 residues of apoferritin truncated for stability. Several mutations (shown as lightning) were also incorporated on the interface between KIX and apoferritin to enhance stability. The MBP tag is fused to the KIX N-terminus. FIG. 1C. Design of mutations that stabilize the KIX domain of CBP on the apoferritin complex. […] Fluorescence polarization assay using the BODIPY-conjugated phosphorylated KID domain of CREB and KIX, MBP-KIX-apoferritin construct 3, or MBP-apoferritin. […]
Fluorescence polarization (FP) using the MBP-KIX-apoferritin and the BODIPY-conjugated phosphorylated pKID domain of CREB was performed as described previously^16. […] Phosphorylation efficiency of pKID, which was assessed using a SDS-gel containing Phos-tag™ Acrylamide (FUJIFILM), was almost 100%. pKID was purified using the phosphoprotein enrichment kit (Takara). […] Molar concentration of KIX, MBP-KIX-apoferritin construct 3, and MBP-apoferritin was calculated as a monomer. FP was measured 30 minutes after mixing using INFINITE M1000 PRO (TECAN). […]

In the case of “MKF: 24-mer MBP-KIX-apoferritin fusion protein double-shell nanostructure from construct 3 (T27C, A31C, E169C, C177S, E237C)”, the “binding affinity of KIX for the BODIPY-conjugated pKID domain of CREB (function of KIX in the 24-mer complex)” value is reported as “still maintained its function”.

Source: US20230357363A1, “PROTEIN DOUBLE-SHELL NANOSTRUCTURES AND THEIR USE” (The Board of Trustees of the Leland Stanford Junior …, priority 2020, published 2023)
